The source of these data is US10066159B2, “Composite nanoparticles including a phthalic acid derivative” (3M INNOVATIVE PROPERTIES COMPANY, priority 2013, dated 2018).

A short description of this data set: Solubility in toluene. The data set is classed as physicochemical. The following applies: based on a total weight of the solution.

Take `CCCCCCCCOc1cc(C(=O)O)c(C(=O)O)cc1OCCCCCCCC` [Example 2, 4,5-dioctyloxyphthalic Acid]: the solubility in toluene result is “greater than 1 weight percent”.
`CCCCCCOc1ccc(C(=O)O)c(C(=O)O)c1` [Example 1, 4-hexyloxyphthalic Acid]: the solubility in toluene result is on record as “greater than 1 weight percent”.
